# Data as given in patent US20040058909A1, “Method of treatment” (priority 2003, published 2004).
# Tests used:
# [1] = system: cynomolgus monkeys exposed to 1-methyl-4-phenyl-1,2,3,6-tetrahydropyridine (MPTP)
# Protocol: Quetiapine may be administered to cynomolgus monkeys exposed to 1-methyl-4-phenyl-1,2,3,6-tetrahydropyridine (MPTP) and which therefore have MPTP-induced Parkinson's Disease. Such monkeys are described by Blanchet et al., Experimental Neurology, 153, 214-222 (1998).
# The monkeys are assessed according to the Laval University Disability Scale for MPTP monkeys with the following motor and behavioural parameters scored: posture (normal, flexed, crouched); mobility (normal, passive); climbing (present, absent); gait (normal, abnormal); tremor (present, absent); holding food (present, absent); vocalising (present, absent); grooming (present, absent); and social interaction (present, absent).
# Quetiapine may be administered at various dosage values, either alone or with varying dosages of levodopa, and scoring is carried out at regular intervals.
# Quetiapine was administered subcutaneously to 8 cynomolgus monkeys at doses of 2 mg/Kg and 4 mg/Kg.
# [2] = system: patients suffering from Parkinson's Disease; conditions: patients with Parkinson's Disease treated for psychoses; cited from earlier work
smiles,measurement,setting,value
"OCCOCCN1CCN(C2=Nc3ccccc3Sc3ccccc32)CC1 [Quetiapine, 11-(4-[2-(2-hydroxyethoxy)ethyl]-l-piperazinyl)dibenzo[b,f] [1.4]-thiazepine]",levodopa effect on Parkinson's Disease symptoms,[1]; quetiapine 2 mg/Kg and 4 mg/Kg subcutaneously with levodopa,unchanged
same,"reduction of levodopa-induced dyskinesias, compared with the 4 mg/Kg dose","[1]; quetiapine 2 mg/Kg subcutaneously, 8 cynomolgus monkeys",less effective
same,reduction of maximum levodopa-induced dyskinesias,"[1]; quetiapine 4 mg/Kg subcutaneously, levodopa dose sufficient to produce maximum dyskinesias, 8 cynomolgus monkeys",41%
same,reduction of moderate levodopa-induced dyskinesias,"[1]; quetiapine 4 mg/Kg subcutaneously, levodopa dose sufficient to produce moderate dyskinesias, 8 cynomolgus monkeys",57%
same,exacerbation of extra-pyramidal symptoms,[2],no exacerbation of extra-pyramidal symptoms
